Experimental data published in US9302999B2, “Substituted triazoles as herbicides” (E. I. DU PONT DE NEMOURS AND COMPANY, priority 2012, dated 2016).
Read-outs that look alike come from different tables or passages of the source.

Key:
Type in all cases: in vivo
[1] = tested on: sedge, umbrella (small-flower umbrella sedge, Cyperus difformis); assay: Test C flooded paddy test: sedge, umbrella; details: scale 0 to 100 (0 no effect, 100 complete control); for pest or weed control at 62 g/ha / pest or weed control at 125 g/ha / pest or weed control at 250 g/ha / pest or weed control at 31 g/ha: Cyperus difformis, read-out: Plant response rating, Sedge, Umbrella
Procedure, shortened: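 Greenhouse plants treated at the 2-leaf stage by dosing the flood water (3 cm depth, maintained) were compared with controls after 13 to 15 days and rated 0 to 100, where 100 means complete control; a dash marks no test result.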

[2] = tested on: canarygrass (Phalaris minor); assay: Test C postemergence: canarygrass
Description: (§1) At the same time, plants selected from these crop and weed species and also barley (winter barley, Hordeum vulgare), canarygrass (Phalaris minor), chickweed (common chickweed, Stellaria media) windgrass (Apera spica-venti) and deadnettle (henbit deadnettle, Lamium amplexicaule) were planted in pots containing Redi-Earth® planting medium (Scotts Company, 14111 Scottslawn Road, Marysville, Ohio 43041) comprising spaghnum peat moss, vermiculite, wetting agent and starter nutrients and treated with postemergence applications of test chemicals formulated in the same manner. Plants ranged in height from 2 to 18 cm (1- to 4-leaf stage) for postemergence treatments.
(§2) Treated plants and controls were maintained in a greenhouse for 13 to 15 days, after which time all species were compared to controls and visually evaluated. Plant response ratings, summarized in Table C, are based on a scale of 0 to 100 where 0 is no effect and 100 is complete control. A dash (-) response means no test result.

[3] = tested on: deadnettle (henbit deadnettle, Lamium amplexicaule); assay: Test C postemergence: deadnettle
Description: as §1, §2

[4] = tested on: pigweed (Amaranthus retroflexus); assay: Test D pre-/postemergence: pigweed
Description: (§3) Seeds of plant species selected from bluegrass (annual bluegrass, Poa annua), blackgrass (Alopecurus myosuroides), canarygrass (Phalaris minor), chickweed (common chickweed, Stellaria media), galium (catchweed bedstraw, Galium aparine), bromegrass, downy (downy bromegrass, Bromus tectorum), field poppy (Papaver rhoeas), field violet (Viola arvensis), foxtail, green (green foxtail, Setaria viridis), deadnettle (henbit deadnettle, Lamium amplexicaule), ryegrass, Italian (Italian ryegrass, Lolium multiflorum), kochia (Kochia scoparia), lambsquarters (Chenopodium album), oilseed rape (Brassica napus), pigweed (Amaranthus retroflexus), Russian thistle (Salsola iberica), chamomile (scentless chamomile, Matricaria inodora), speedwell (bird's-eye speedwell, Veronica persica), barley, spring (spring barley, Hordeum vulgare), wheat, spring (spring wheat, Triticum aestivum), buckwheat, wild (wild buckwheat, Polygonum convolvulus), mustard, wild (wild mustard, Sinapis arvensis), oat, wild (wild oat, Avena fatua), radish, wild (wild radish, Raphanus raphanistrum), windgrass (Apera spica-venti), barley, winter (winter barley, Hordeum vulgare), and wheat, winter (winter wheat, Triticum aestivum) were planted into a silt loam soil and treated preemergence with test chemicals formulated in a non-phytotoxic solvent mixture which included a surfactant. At the same time, these same crop and weed species were planted in pots containing the planting medium comprising spaghnum peat moss, vermiculite, wetting agent and starter nutrients and treated with postemergence applications of the test chemicals formulated in the same manner. Plants ranged in height from 2 to 18 cm (1- to 4-leaf stage).
as §2, with “controlled growth environment” for “greenhouse”, “14” for “13”, “21 days” for “15 days,”, “D,” for “C,”

[5] = tested on: canarygrass (Phalaris minor); assay: Test D pre-/postemergence: canarygrass
Description: as §3
as §2, with “controlled growth environment” for “greenhouse”, “14” for “13”, “21 days” for “15 days,”, “D,” for “C,”

[6] = tested on: chickweed (common chickweed, Stellaria media); assay: Test D pre-/postemergence: chickweed
Description: as §3
as §2, with “controlled growth environment” for “greenhouse”, “14” for “13”, “21 days” for “15 days,”, “D,” for “C,”

[7] = tested on: ryegrass, Italian (Italian ryegrass, Lolium multiflorum); assay: Test D pre-/postemergence: ryegrass, Italian
Description: as §3
as §2, with “controlled growth environment” for “greenhouse”, “14” for “13”, “21 days” for “15 days,”, “D,” for “C,”

[8] = tested on: foxtail, green (green foxtail, Setaria viridis); assay: Test D pre-/postemergence: foxtail, green
Description: as §3
as §2, with “controlled growth environment” for “greenhouse”, “14” for “13”, “21 days” for “15 days,”, “D,” for “C,”

[9] = tested on: bluegrass (annual bluegrass, Poa annua); assay: Test D pre-/postemergence: bluegrass
Description: as §3
as §2, with “controlled growth environment” for “greenhouse”, “14” for “13”, “21 days” for “15 days,”, “D,” for “C,”

[10] = Flood (flooded paddy test), 62 g ai/ha, visual rating after 13 to 15 days
[11] = Flood (flooded paddy test), 125 g ai/ha, visual rating after 13 to 15 days
[12] = Flood (flooded paddy test), 250 g ai/ha, visual rating after 13 to 15 days
[13] = 31 g ai/ha, scale 0 to 100 (0 no effect, 100 complete control)
[14] = 62 g ai/ha, scale 0 to 100 (0 no effect, 100 complete control)
[15] = 125 g ai/ha, scale 0 to 100, 0 no effect, 100 complete control
[16] = 16 g ai/ha, scale 0 to 100, 0 no effect, 100 complete control
[17] = Postemergence, 31 g ai/ha, scale 0 to 100 (0 no effect, 100 complete control)
[18] = Postemergence, 62 g ai/ha, scale 0 to 100 (0 no effect, 100 complete control)
[19] = Postemergence, 125 g ai/ha, scale 0 to 100, 0 no effect, 100 complete control
[20] = Postemergence, 250 g ai/ha, scale 0 to 100 (0 no effect, 100 complete control)
[21] = Postemergence, 16 g ai/ha, scale 0 to 100
[22] = Preemergence, 16 g ai/ha, scale 0 to 100 (0 no effect, 100 complete control)
[23] = Preemergence, 31 g ai/ha, scale 0 to 100 (0 no effect, 100 complete control)
[24] = Preemergence, 62 g ai/ha, scale 0 to 100
[25] = Preemergence, 125 g ai/ha, scale 0 to 100

Compound: COc1nn(-c2ccc(C(F)(F)F)cc2)nc1Cn1ccc(C(F)(F)F)n1 [Compound 17, 4-methoxy-2-[4-(trifluoromethyl)phenyl]-5-[[3-(trifluoromethyl)-1H-pyrazol-1-yl]methyl]-2H-1,2,3-triazole]
- pest or weed control at 62 g/ha [1, 10]: 20%
- pest or weed control at 125 g/ha [1, 11]: 30%
- pest or weed control at 250 g/ha [1, 12]: 75%
- pest or weed control at 31 g/ha ([1]; Flood, 31 g ai/ha): 0%

Compound: Cc1nn(-c2ccc(C(F)(F)F)cc2)nc1Cc1ccnc(C(F)(F)F)c1 [Compound 47, 4-[[5-methyl-2-[4-(trifluoromethyl)phenyl]-2H-1,2,3-triazol-4-yl]methyl]-2-(trifluoromethyl)pyridine]
- pest or weed control at 62 g/ha [1, 10]: 85%
- pest or weed control at 125 g/ha [1, 11]: 90%
- pest or weed control at 250 g/ha [1, 12]: 90%
- pest or weed control at 31 g/ha ([1]; Flood, 31 g ai/ha): 75%
- Plant response rating, Canarygrass [2, 13]: 60
- Plant response rating, Canarygrass [2, 14]: 75
- Plant response rating, Canarygrass [2, 15]: 85
- Plant response rating, Canarygrass ([2]; 250 g ai/ha, scale 0 to 100): 90
- Plant response rating, Deadnettle [3, 13]: 95
- Plant response rating, Deadnettle [3, 14]: 100
- Plant response rating, Deadnettle [3, 15]: 100
- Plant response rating, Deadnettle ([3]; 250 g ai/ha, scale 0 to 100): 100

Compound: Cc1nn(-c2ccc(C(F)(F)F)cc2)nc1Cc1cccc(C(F)(F)F)c1 [Compound 124]
- Plant response rating, Sedge, Umbrella [1, 11]: 90
- Plant response rating, Sedge, Umbrella [1, 12]: 90
- Plant response rating, Sedge, Umbrella ([1]; Flood, 31 g ai/ha): 50
- Plant response rating, Sedge, Umbrella ([1]; Flood, 62 g ai/ha): 90
- Plant response rating, Canarygrass [2, 16]: 0
- Plant response rating, Canarygrass [2, 13]: 20
- Plant response rating, Canarygrass [2, 14]: 35
- Plant response rating, Canarygrass [2, 15]: 85
- Plant response rating, Deadnettle [3, 16]: 75
- Plant response rating, Deadnettle [3, 13]: 80
- Plant response rating, Deadnettle [3, 14]: 98
- Plant response rating, Deadnettle [3, 15]: 98

Compound: CCc1nn(-c2ccc(C(F)(F)F)cc2)nc1Oc1cccc(OC(F)(F)F)c1 [Compound 125, 4-ethyl-5-[3-(trifluoromethoxy)phenoxy]-2-[4-(trifluoromethyl)phenyl]-2H-1,2,3-triazole]
- pest or weed control at 125 g/ha [1, 11]: 80%
- pest or weed control at 250 g/ha [1, 12]: 85%
- pest or weed control at 31 g/ha ([1]; Flood, 31 g ai/ha): 0%
- pest or weed control at 62 g/ha ([1]; Flood, 62 g ai/ha): 40%

Compound: Cc1nn(-c2ccnc(C(F)(F)F)c2)nc1Cc1ccnc(C(F)(F)F)c1 [Compound 137]
- Plant response rating: Pigweed [4, 17]: 90
- Plant response rating: Pigweed [4, 18]: 95
- Plant response rating: Pigweed [4, 19]: 100
- Plant response rating: Pigweed [4, 20]: 100
- Plant response rating, Pigweed [4, 21]: 90
- Plant response rating: Canarygrass [5, 17]: 20
- Plant response rating: Canarygrass [5, 18]: 30
- Plant response rating: Canarygrass [5, 19]: 50
- Plant response rating: Canarygrass [5, 20]: 75
- Plant response rating, Canarygrass [5, 21]: 10
- Plant response rating: Chickweed [6, 17]: 50
- Plant response rating: Chickweed [6, 18]: 80
- Plant response rating: Chickweed [6, 19]: 85
- Plant response rating: Chickweed [6, 20]: 90
- Plant response rating, Chickweed [6, 21]: 40
- Plant response rating: Ryegrass, Italian [7, 17]: 10
- Plant response rating: Ryegrass, Italian [7, 18]: 25
- Plant response rating: Ryegrass, Italian [7, 19]: 35
- Plant response rating: Ryegrass, Italian [7, 20]: 40
- Plant response rating, Ryegrass, Italian [7, 21]: 0
- Plant response rating, Canarygrass [2, 13]: 45
- Plant response rating, Canarygrass [2, 14]: 60
- Plant response rating, Canarygrass [2, 15]: 70
- Plant response rating, Canarygrass ([2]; 250 g ai/ha, scale 0 to 100): 75
- Plant response rating: Foxtail, Green [8, 17]: 50
- Plant response rating: Foxtail, Green [8, 18]: 70
- Plant response rating: Foxtail, Green [8, 19]: 80
- Plant response rating: Foxtail, Green [8, 20]: 95
- Plant response rating, Foxtail, Green [8, 21]: 40
- Plant response rating: Bluegrass [9, 17]: 20
- Plant response rating: Bluegrass [9, 18]: 40
- Plant response rating: Bluegrass [9, 19]: 80
- Plant response rating: Bluegrass [9, 20]: 90
- Plant response rating, Bluegrass [9, 21]: 5
- Plant response rating, Deadnettle [3, 13]: 80
- Plant response rating, Deadnettle [3, 14]: 95
- Plant response rating, Deadnettle [3, 15]: 95
- Plant response rating, Deadnettle ([3]; 250 g ai/ha, scale 0 to 100): 95

Compound: Fc1ccc(-n2nc(Cc3ccnc(C(F)(F)F)c3)c(OCC(F)(F)F)n2)cc1 [Compound 142]
- Plant response rating, Canarygrass [2, 13]: 45
- Plant response rating, Canarygrass [2, 14]: 80
- Plant response rating, Canarygrass [2, 15]: 85
- Plant response rating, Canarygrass ([2]; 250 g ai/ha, scale 0 to 100): 100
- Plant response rating, Deadnettle [3, 13]: 100
- Plant response rating, Deadnettle [3, 14]: 100
- Plant response rating, Deadnettle [3, 15]: 100
- Plant response rating, Deadnettle ([3]; 250 g ai/ha, scale 0 to 100): 100

Compound: Cc1nn(-c2ccc(F)c(C(F)(F)F)c2)nc1Oc1ccnc(C(F)(F)F)c1 [Compound 147]
- Plant response rating: Pigweed [4, 17]: 70
- Plant response rating: Pigweed [4, 18]: 85
- Plant response rating: Pigweed [4, 19]: 95
- Plant response rating, Pigweed [4, 21]: 75
- Plant response rating, Pigweed [4, 22]: 35
- Plant response rating, Pigweed [4, 23]: 75
- Plant response rating, Pigweed [4, 24]: 80
- Plant response rating, Pigweed [4, 25]: 100
- Plant response rating: Canarygrass [5, 17]: 35
- Plant response rating: Canarygrass [5, 18]: 55
- Plant response rating: Canarygrass [5, 19]: 80
- Plant response rating, Canarygrass [5, 21]: 15
- Plant response rating, Canarygrass [5, 22]: 5
- Plant response rating, Canarygrass [5, 23]: 35
- Plant response rating, Canarygrass [5, 24]: 100
- Plant response rating, Canarygrass [5, 25]: 100
- Plant response rating: Chickweed [6, 17]: 70
- Plant response rating: Chickweed [6, 18]: 80
- Plant response rating: Chickweed [6, 19]: 80
- Plant response rating, Chickweed [6, 21]: 60
- Plant response rating, Chickweed [6, 22]: 35
- Plant response rating, Chickweed [6, 23]: 85
- Plant response rating, Chickweed [6, 24]: 70
- Plant response rating, Chickweed [6, 25]: 100
- Plant response rating: Ryegrass, Italian [7, 17]: 10
- Plant response rating: Ryegrass, Italian [7, 18]: 15
- Plant response rating: Ryegrass, Italian [7, 19]: 35
- Plant response rating, Ryegrass, Italian [7, 21]: 5
- Plant response rating, Ryegrass, Italian [7, 22]: 0
- Plant response rating, Ryegrass, Italian [7, 23]: 5
- Plant response rating, Ryegrass, Italian [7, 24]: 15
- Plant response rating, Ryegrass, Italian [7, 25]: 30
- Plant response rating: Foxtail, Green [8, 17]: 15
- Plant response rating: Foxtail, Green [8, 18]: 25
- Plant response rating: Foxtail, Green [8, 19]: 60
- Plant response rating, Foxtail, Green [8, 21]: 15
- Plant response rating, Foxtail, Green [8, 22]: 10
- Plant response rating, Foxtail, Green [8, 23]: 25
- Plant response rating, Foxtail, Green [8, 24]: 75
- Plant response rating, Foxtail, Green [8, 25]: 100
- Plant response rating: Bluegrass [9, 17]: 10
- Plant response rating: Bluegrass [9, 18]: 55
- Plant response rating: Bluegrass [9, 19]: 70
- Plant response rating, Bluegrass [9, 21]: 5
- Plant response rating, Bluegrass [9, 22]: 0
- Plant response rating, Bluegrass [9, 23]: 15
- Plant response rating, Bluegrass [9, 24]: 20
- Plant response rating, Bluegrass [9, 25]: 35
